In PubChem BioAssay AID248 (DTP/NCI, 2004):
Where “and” joins values, the source holds several entries; their conditions need not be identical. Equal entries are not always repeated. Toxic doses and inconclusive results are not listed. Rule as the data show it: active = T/C of 150% or more; inactive = T/C below 125%.

System: L1210 leukemia ip in BDF1 mice, survival T/C
Test: NCI In Vivo Anticancer Drug Screen. Data for tumor model L1210 Leukemia (intraperitoneal) in B6D2F1 (BDF1) mice
Conditions: endpoint: mean survival time, higher = longer survival
Summary of the method: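 Mice bearing the transplanted tumor received compound or vehicle. Survival of the treated group was divided by that of the vehicle-treated control group to give the ratio.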

[1] = dose: 50.0 mg/kg/injection, schedule: Q01DX001 (ip), vehicle: saline
[2] = dose: 100.0 mg/kg/injection, schedule: Q01DX001 (ip), vehicle: saline
[3] = dose: 200.0 mg/kg/injection, schedule: Q01DX001 (ip), vehicle: saline
[4] = dose: 400.0 mg/kg/injection, schedule: Q01DX001 (ip), vehicle: saline
[5] = dose: 100.0 mg/kg/injection, schedule: Q01DX001 (ip), vehicle: carboxymethylcellulose (CMC)
[6] = dose: 200.0 mg/kg/injection, schedule: Q01DX001 (ip), vehicle: carboxymethylcellulose (CMC)
[7] = dose: 25.0 mg/kg/injection, schedule: Q04DX003 (ip), vehicle: saline with Tween-80
[8] = dose: 50.0 mg/kg/injection, schedule: Q04DX003 (ip), vehicle: saline with Tween-80
[9] = dose: 100.0 mg/kg/injection, schedule: Q04DX003 (ip), vehicle: Klucel (hydroxypropylcellulose) (HPC)
[10] = dose: 200.0 mg/kg/injection, schedule: Q04DX003 (ip), vehicle: Klucel (hydroxypropylcellulose) (HPC)
[11] = dose: 400.0 mg/kg/injection, schedule: Q04DX003 (ip), vehicle: Klucel (hydroxypropylcellulose) (HPC)
[12] = dose: 100.0 mg/kg/injection, schedule: Q01DX009 (ip), vehicle: saline with Tween-80
[13] = dose: 100.0 mg/kg/injection, schedule: Q04DX003 (ip), vehicle: saline with Tween-80
[14] = dose: 200.0 mg/kg/injection, schedule: Q01DX009 (ip), vehicle: saline with Tween-80
[15] = dose: 200.0 mg/kg/injection, schedule: Q04DX003 (ip), vehicle: saline with Tween-80
[16] = dose: 400.0 mg/kg/injection, schedule: Q01DX009 (ip), vehicle: saline with Tween-80
[17] = dose: 400.0 mg/kg/injection, schedule: Q04DX003 (ip), vehicle: saline with Tween-80
[18] = dose: 50.0 mg/kg/injection, schedule: Q01DX009 (ip), vehicle: saline with Tween-80
[19] = dose: 400.0 mg/kg/injection, schedule: Q01DX001 (ip), vehicle: carboxymethylcellulose (CMC)

Measured: T/C

O=Cc1ccc2cccnc2c1O
inactive: [1] 114 % of control | [2] 108 % of control | [3] 93 % of control

CC1CCOC1=O (stereo unspecified)
inactive: [1] 96 % of control | [2] 107 % of control | [3] 105 % of control | [4] 96 % of control

O=C(O)c1ccc(N=Cc2ccc(N(CCCl)CCCl)cc2)cc1O
inactive: [5] 95 % of control | [6] 101 % of control

COc1ccc(C(=O)CCN2CCC(O)(c3ccccc3)CC2)cc1
inactive: dose: 12.5 mg/kg/injection, schedule: Q04DX003 (ip), vehicle: saline with Tween-80 100 % of control | [7] 92 % of control | [8] 96 % of control

O=C1CCCCC1Nc1ccc([N+](=O)[O-])cc1 (stereo unspecified)
inactive: [2] 87 % of control | [3] 93 % of control | [4] 95 % of control

CCC(=O)Nc1ccccc1OC
inactive: [9] 100 % of control | [10] 115 % of control | [11] 102 % of control

CCOc1ccc(Br)cc1/C=N/NS(=O)(=O)c1ccc(C)cc1
inactive: [12] 94 % of control | [13] 97 % of control | [14] 97 % of control | [15] 103 % of control | [16] 101 % of control | [17] 103 % of control

CN1C(=O)c2ccccc2/C=C\c2ccccc21
inactive: dose: 100.0 mg/kg/injection, schedule: Q04DX002 (ip), vehicle: Klucel (hydroxypropylcellulose) (HPC) 103 % of control | dose: 200.0 mg/kg/injection, schedule: Q04DX002 (ip), vehicle: Klucel (hydroxypropylcellulose) (HPC) 92 % of control | dose: 400.0 mg/kg/injection, schedule: Q04DX002 (ip), vehicle: Klucel (hydroxypropylcellulose) (HPC) 87 % of control

Cc1cc(Cl)ccc1NC(=O)COc1ccc(Cl)cc1Cl
inactive: [18] 87 % of control | [12] 87 % of control | [13] 93 % of control | [14] 96 % of control | [15] 91 % of control

CC(S)CNCCSC(=O)c1ccccc1 (stereo unspecified)
inactive: dose: 100.0 mg/kg/injection, schedule: Q04DX003 (ip), vehicle: acetone 91 % of control | dose: 200.0 mg/kg/injection, schedule: Q04DX003 (ip), vehicle: acetone 102 % of control | dose: 400.0 mg/kg/injection, schedule: Q04DX003 (ip), vehicle: acetone 97 % of control

c1ccc(N=Nc2cccnn2)cc1
inactive: dose: 50.0 mg/kg/injection, schedule: Q04DX002 (ip), vehicle: saline with Tween-80 97 % of control | dose: 100.0 mg/kg/injection, schedule: Q04DX002 (ip), vehicle: saline with Tween-80 105 % of control | dose: 200.0 mg/kg/injection, schedule: Q04DX002 (ip), vehicle: saline with Tween-80 94 % of control

OCc1cccc(F)c1
inactive: dose: 100.0 mg/kg/injection, schedule: Q01DX009 (ip), vehicle: saline 98 % of control | dose: 100.0 mg/kg/injection, schedule: Q04DX003 (ip), vehicle: saline 105 % of control | dose: 200.0 mg/kg/injection, schedule: Q01DX009 (ip), vehicle: saline 95 % of control | dose: 200.0 mg/kg/injection, schedule: Q04DX003 (ip), vehicle: saline 102 % of control | dose: 400.0 mg/kg/injection, schedule: Q01DX009 (ip), vehicle: saline 98 % of control | dose: 400.0 mg/kg/injection, schedule: Q04DX003 (ip), vehicle: saline 104 % of control

CCCCCCCCCCCCCCCCCC(=O)NCC[N+](C)(C)C
inactive: dose: 5.0 mg/kg/injection, schedule: Q01DX001 (ip), vehicle: saline 98 % of control | dose: 10.0 mg/kg/injection, schedule: Q01DX001 (ip), vehicle: saline 96 % of control | dose: 20.0 mg/kg/injection, schedule: Q01DX001 (ip), vehicle: saline 98 % of control | dose: 40.0 mg/kg/injection, schedule: Q01DX001 (ip), vehicle: saline 93 % of control | dose: 80.0 mg/kg/injection, schedule: Q01DX001 (ip), vehicle: saline 102 % of control

COC(=O)Nc1cccc(NC(=O)C(=O)O)c1
inactive: dose: 25.0 mg/kg/injection, schedule: Q01DX009 (ip), vehicle: saline with Tween-80 105 % of control | [7] 107 % of control | [18] 98 % of control | [8] 105 % of control | [12] 102 % of control | [13] 94 % of control and 100 % of control | [15] 105 % of control

CCCCCCCCC1SC1CCCCCCCC(=O)OCCCOC(=O)CCCCCCCC1SC1CCCCCCCC (stereo unspecified)
inactive: [12] 98 % of control | [14] 93 % of control | [16] 96 % of control

C1CCC2(CC1)CCNCC2
inactive: [1] 102 % of control

CN(C)P1(=S)NCCCO1 (stereo unspecified)
inactive: dose: 87.5 mg/kg/injection, schedule: Q01DX009 (ip), vehicle: other 97 % of control | dose: 175.0 mg/kg/injection, schedule: Q01DX009 (ip), vehicle: other 100 % of control | dose: 350.0 mg/kg/injection, schedule: Q01DX009 (ip), vehicle: other 100 % of control

O=C(CCl)Nc1ccc2c(c1)-n1cccc1C2=O
inactive: dose: 25.0 mg/kg/injection, schedule: Q01DX009 (ip), vehicle: Klucel (hydroxypropylcellulose) (HPC) 89 % of control | dose: 50.0 mg/kg/injection, schedule: Q01DX009 (ip), vehicle: Klucel (hydroxypropylcellulose) (HPC) 91 % of control | dose: 100.0 mg/kg/injection, schedule: Q01DX009 (ip), vehicle: Klucel (hydroxypropylcellulose) (HPC) 86 % of control | [9] 93 % of control | [10] 96 % of control | [11] 100 % of control

O=C(CCl)c1cnc2ccccc2n1
inactive: dose: 5.0 mg/kg/injection, schedule: Q01DX009 (ip), vehicle: saline 102 % of control | dose: 5.0 mg/kg/injection, schedule: Q04DX003 (ip), vehicle: saline 103 % of control | dose: 10.0 mg/kg/injection, schedule: Q01DX009 (ip), vehicle: saline 98 % of control | dose: 10.0 mg/kg/injection, schedule: Q04DX003 (ip), vehicle: saline 100 % of control | dose: 20.0 mg/kg/injection, schedule: Q01DX009 (ip), vehicle: saline 93 % of control | dose: 20.0 mg/kg/injection, schedule: Q04DX003 (ip), vehicle: saline 100 % of control

Cn1c2ccccc2c(=O)c2c(O)cc3c(c21)C=C(Br)C(C)(C)O3
inactive: dose: 50.0 mg/kg/injection, schedule: Q01DX001 (ip), vehicle: carboxymethylcellulose (CMC) 88 % of control | [5] 93 % of control | [6] 98 % of control | [19] 90 % of control

OCCN(CCO)c1cc(O)cc(O)c1
inactive: [12] 98 % of control | [13] 98 % of control | [14] 96 % of control | [15] 91 % of control | [16] 96 % of control | [17] 102 % of control

S=P(NCCCCCCCNP(=S)(N1CC1)N1CC1)(N1CC1)N1CC1
inactive: [5] 106 % of control | [6] 98 % of control | [19] 104 % of control

CCCCCC1CCCC1
inactive: dose: 100.0 mg/kg/injection, schedule: Q04DX002 (ip), vehicle: saline 94 % of control | dose: 200.0 mg/kg/injection, schedule: Q04DX002 (ip), vehicle: saline 106 % of control | dose: 400.0 mg/kg/injection, schedule: Q04DX002 (ip), vehicle: saline 103 % of control
